The values below come from PMC4121097, “Glioma-Associated Antigen HEATR1 Induces Functional Cytotoxic T Lymphocytes in Patients with Glioma” (Journal of Immunology Research, 2014).

Assay [1] concerns the target T1, HLA-A∗02:01 on T2 cells (Homo sapiens, UniProt P04439, D140Y/D185E/D98H/E176V/E277Q/G131W/G231S/I119V/I121R/I166T/I218V/L300P/L318F/N151K/N90K/P208A/P217A/Q86G/Q94H/R138H/R169H/T345S).
T1 construct: measuring peptide-induced expression of HLA-A∗02:01 on T2 cells using flow cytometry; host or cells: T2 cells (human, TAP1/TAP2-deficient)
As to the kind of experiment: T2-cell-peptide binding test (peptide-induced HLA-A∗02:01 expression, flow cytometry). Conditions: peptide 20 μg/mL; for affinity for binding to HLA-A∗02 (in words): 4 h, Figure 2(b); for percentage of MFI increase of HLA-A∗02:01: 4 h in SFM, BB7.2 anti-HLA-A∗02:01 mAb, mean ± SE of three independent experiments, SEM. The protocol:
The binding activity of selected peptides to the HLA-A∗02 molecule was determined semiquantitatively by measuring peptide-induced expression of HLA-A∗02:01 on T2 cells using flow cytometry. The T2 cells were incubated for 4 h with the candidate peptides, respectively, at a concentration of 20 μg/mL in SFM. After being washed with phosphate buffered saline-fetal calf serum (PBS-FCS), the T2 cells were incubated with supernatant containing murine mAb against HLA-A∗02:01 derived from BB7.2 cells for 30 min at 4°C. The T2 cells were washed twice with PBS-FCS and stained with 5 μg/mL diluted fluorescein isothiocyanate-conjugated immunoglobulin G which reacts to mouse immunoglobulin for 30 min. The cells were then rinsed three times with PBS-FCS and analyzed using a FACSAria flow cytometer. The percent mean fluorescence index (% MFI) increase of HLA-A∗02:01 molecules was calculated as follows: % MFI increase = [(MFI with peptide − MFI without peptide)]/(MFI without peptide) × 100 [27].
A general note: A flow cytometer gives signals particle by particle.

Assay [2] concerns PBMCs from healthy donors and patients with glioma. Nature of the assay: IFN-γ ELISpot assay with PBMCs. Conditions: PBMCs from five HLA-A∗02+ patients with GBM and one control patient with benign tumor, Figure 4. Format: cell-based, human. On the procedure: A human IFN-γ ELISpot kit (552138; BD Pharmingen, CA) was used to quantify the CTL response in PBMCs. Several 96-well plates were coated with purified anti-human IFN-γ monoclonal antibodies at the concentration of 5 μg/mL at 100 μL/well and incubated at 4°C overnight and then washed once with 200 μL/well of RPMI-1640 containing 10% FBS and 1% penicillin-streptomycin-L-glutamine (R10) and blocked with 200 μL/well R10 for 2 h at room temperature. PBMCs were then washed twice with R10 and resuspended in R10 complete culture medium. After being counted, the cells were then adjusted to the concentration of 1 × 10^6 cells/mL and plated onto a 96-well ELISpot plate at 50 μL/well (5 × 10^4 cells/well) with the addition of 50 μL of the peptide. The final concentration of each peptide was 5 μg/mL. The 96-well ELISpot plates were incubated for about 20 h at 37°C in 5% CO2. After incubation, the ELISpot plates were developed according to the kit instructions. Finally, the plates were air-dried and the resulting spots were counted with ChampSpot IV Bioreader (Beijing SAGE Creation Science, Beijing, China). Peptide-specific IFN-γ ELISpot responses were considered positive only when the number of spots was twofold greater than the control peptide stimulation and there were >50 spots per 1 × 10^6 PBMCs.

As for FLFDTQHFI [HEATR1_2003–2011], in assay [1], the “affinity for binding to HLA-A∗02 (in words)” value (“affinity for binding” for short) is “lower affinity”. For FLWILLILL [HEATR1_1411–1419], in assay [1], the “affinity for binding” value is on record as “lowest affinity”. Take KLLRMLFDL [HEATR1_1126–1134]: in assay [2], the “ELISpot response to individual peptide (in words)” value (shortened to “ELISpot response”) is listed as “higher than the others”. For the same sequence, the “percentage of MFI increase of HLA-A∗02:01” value in assay [1] was found to be 287.2 ± 7.7%.

On to KMVEDLISV [HEATR1_682–690], for which the “ELISpot response” value in assay [2] was “higher than the others”. In assay [1], the “affinity for binding” value was “highest affinity” and the “percentage of MFI increase of HLA-A∗02:01” value stood at 308.5 ± 4.8%.

With LLPESIPFL [HEATR1_2102–2110], in assay [1], the “percentage of MFI increase of HLA-A∗02:01” value was 285.2 ± 49.2%. Consider LMLDRGIPV [HEATR1_757–765], for which, in assay [2], the “ELISpot response” value was “highest ELISpot response”. Further, the “percentage of MFI increase of HLA-A∗02:01” value in assay [1] is on record as 228.7 ± 5.4%.
